Measurements: ChEMBL document CHEMBL4354805, “Discovery of MK-8719, a Potent O-GlcNAcase Inhibitor as a Potential Treatment for Tauopathies” (J Med Chem, 2019)

How the values were obtained:
[1] = Volume of distribution at steady state in Wistar Han rat at 2 mg/kg, iv or 3 mg/kg, po; assay type: ADME, organism-based; conditions: in vivo, read-out: Vdss
Rattus norvegicus [2] = assay: Elevation of O-protein in rat brain at 10 mg/kg, po measured after 24 hrs; assay type: functional
[3] = Oral bioavailability in Wistar Han rat at 3 mg/kg; assay type: ADME, organism-based; conditions: in vivo
[4] = Fraction unbound in Wistar Han rat plasma at 2.5 uM by equilibrium dialysis; assay type: ADME, cell-free
[5] = Drug uptake in rat brain at 3 mg/kg, po measured after 8 hrs; assay type: ADME, organism-based; conditions: in vivo
[6] = Clearance in Wistar Han rat at 2 mg/kg, iv; assay type: ADME, organism-based; conditions: in vivo
Rattus norvegicus [7] = assay: Increase in O-protein AUC in rat brain at 10 mg/kg, po measured upto 24 hrs; assay type: ADME, organism-based; conditions: in vivo
[8] = Tmax in rat brain at 10 mg/kg, po measured upto 24 hrs; assay type: ADME, organism-based
Protein O-GlcNAcase [9] = target: T1, Protein O-GlcNAcase (Rattus norvegicus, UniProt Q8VIJ5); assay: Inhibition of OGA in rat PC12 cells assessed as OGlcNAcylated protein level incubated for 24 hrs by ELISA; assay type: cell-based
T1 sequence (Q8VIJ5 whole entry): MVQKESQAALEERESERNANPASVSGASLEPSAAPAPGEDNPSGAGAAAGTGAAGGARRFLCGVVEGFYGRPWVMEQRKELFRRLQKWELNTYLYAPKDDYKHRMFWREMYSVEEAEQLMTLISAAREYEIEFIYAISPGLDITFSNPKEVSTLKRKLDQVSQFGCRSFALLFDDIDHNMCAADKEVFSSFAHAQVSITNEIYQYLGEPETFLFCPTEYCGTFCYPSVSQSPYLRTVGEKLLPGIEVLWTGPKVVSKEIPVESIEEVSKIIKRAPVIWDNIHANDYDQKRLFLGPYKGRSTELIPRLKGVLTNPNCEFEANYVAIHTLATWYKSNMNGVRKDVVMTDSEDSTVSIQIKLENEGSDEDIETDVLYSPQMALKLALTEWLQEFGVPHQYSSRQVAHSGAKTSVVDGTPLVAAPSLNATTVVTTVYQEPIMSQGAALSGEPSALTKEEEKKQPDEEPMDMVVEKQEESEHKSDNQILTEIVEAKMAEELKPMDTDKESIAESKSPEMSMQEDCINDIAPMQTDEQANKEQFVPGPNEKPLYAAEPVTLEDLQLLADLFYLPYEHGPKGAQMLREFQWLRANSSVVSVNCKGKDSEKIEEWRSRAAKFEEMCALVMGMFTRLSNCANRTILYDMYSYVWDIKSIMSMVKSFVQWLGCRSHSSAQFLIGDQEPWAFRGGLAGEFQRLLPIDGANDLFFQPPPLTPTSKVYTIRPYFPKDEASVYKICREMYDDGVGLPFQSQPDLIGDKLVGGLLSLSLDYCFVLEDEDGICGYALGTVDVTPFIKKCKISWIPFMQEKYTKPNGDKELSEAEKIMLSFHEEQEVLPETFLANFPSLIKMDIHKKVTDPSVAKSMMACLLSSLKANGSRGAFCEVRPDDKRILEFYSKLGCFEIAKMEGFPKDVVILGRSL

MDR1 = assay: Apparent permeability in pig LLC-PK1 cells transfected with MDR1; assay type: ADME, cell-based, Sus scrofa
[10] = AUCN in Wistar Han rat at 3 mg/kg, po; assay type: ADME, organism-based; conditions: in vivo
[11] = AUC (0 to 24 hrs) in rat brain at 10 mg/kg, po measured upto 24 hrs; assay type: ADME, organism-based; set-up: dose 10 mg/kg, time < 24 hr, route oral; conditions: in vivo
[12] = Fraction unbound in human plasma at 2.5 uM by equilibrium dialysis; assay type: ADME, cell-free
Protein O-GlcNAcase [13] = target: T2, Protein O-GlcNAcase (Homo sapiens, UniProt O60502); assay: Inhibition of recombinant human OGA
T2 sequence (O60502 whole entry): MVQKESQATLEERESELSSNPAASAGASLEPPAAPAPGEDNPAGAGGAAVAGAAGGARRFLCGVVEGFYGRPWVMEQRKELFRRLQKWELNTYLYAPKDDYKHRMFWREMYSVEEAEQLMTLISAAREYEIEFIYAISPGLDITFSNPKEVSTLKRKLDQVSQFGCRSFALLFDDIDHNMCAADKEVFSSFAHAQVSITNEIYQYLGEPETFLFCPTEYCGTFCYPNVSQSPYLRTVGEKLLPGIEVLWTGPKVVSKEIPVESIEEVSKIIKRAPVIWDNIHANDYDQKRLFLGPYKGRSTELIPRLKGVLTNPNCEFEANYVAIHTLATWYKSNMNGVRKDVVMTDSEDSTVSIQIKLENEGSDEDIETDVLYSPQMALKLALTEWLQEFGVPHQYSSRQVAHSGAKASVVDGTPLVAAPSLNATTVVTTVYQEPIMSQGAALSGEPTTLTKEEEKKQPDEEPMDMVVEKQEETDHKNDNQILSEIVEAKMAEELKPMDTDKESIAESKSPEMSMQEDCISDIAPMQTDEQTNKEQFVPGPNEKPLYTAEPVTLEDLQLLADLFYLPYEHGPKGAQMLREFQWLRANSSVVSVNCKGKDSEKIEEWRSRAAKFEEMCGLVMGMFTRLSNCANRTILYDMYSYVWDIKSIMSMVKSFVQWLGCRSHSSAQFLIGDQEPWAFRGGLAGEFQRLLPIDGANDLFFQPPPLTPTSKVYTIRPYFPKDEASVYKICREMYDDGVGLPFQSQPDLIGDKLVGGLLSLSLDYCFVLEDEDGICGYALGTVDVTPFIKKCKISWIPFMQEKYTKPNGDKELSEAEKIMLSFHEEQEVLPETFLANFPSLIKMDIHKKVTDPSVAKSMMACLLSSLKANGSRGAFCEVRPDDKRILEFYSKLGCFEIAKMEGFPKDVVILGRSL

[14] = target: T3, Beta-hexosaminidase subunit beta (Homo sapiens, UniProt P07686); assay: Inhibition of human beta hexosaminidase assessed as inhibitory constant using 4-methylumbelliferyl N-acetyl-beta-D-glucosaminide dihydrate as substrate measured every 60 sec for 45 mins by fluorescence spectrophotometry
T3 sequence (P07686 whole entry): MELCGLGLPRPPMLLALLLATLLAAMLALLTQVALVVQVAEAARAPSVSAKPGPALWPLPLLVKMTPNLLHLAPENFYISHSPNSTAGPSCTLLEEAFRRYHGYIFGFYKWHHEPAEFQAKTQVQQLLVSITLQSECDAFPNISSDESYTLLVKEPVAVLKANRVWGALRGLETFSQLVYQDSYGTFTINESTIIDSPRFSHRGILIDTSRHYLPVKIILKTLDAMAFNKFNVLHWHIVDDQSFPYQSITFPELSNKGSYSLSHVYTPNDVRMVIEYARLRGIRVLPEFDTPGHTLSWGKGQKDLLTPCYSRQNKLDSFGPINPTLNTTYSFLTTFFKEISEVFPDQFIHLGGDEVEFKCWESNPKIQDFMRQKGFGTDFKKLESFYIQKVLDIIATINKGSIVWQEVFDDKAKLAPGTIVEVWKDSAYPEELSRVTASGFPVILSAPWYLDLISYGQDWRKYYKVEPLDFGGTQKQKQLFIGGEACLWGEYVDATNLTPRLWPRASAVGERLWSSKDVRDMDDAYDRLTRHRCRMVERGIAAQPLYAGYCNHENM

[15] = Ratio of drug uptake in rat brain to plasma at 3 mg/kg, po measured after 8 hrs; assay type: ADME, organism-based; conditions: read-out: BPR
Rattus norvegicus [16] = assay: Elevation of O-protein in rat brain at 3 mg/kg, po measured after 8 hrs relative to control; assay type: functional
[17] = Half life in Wistar Han rat at 2 mg/kg, iv; assay type: ADME, organism-based; conditions: in vivo
[18] = Drug uptake in rat brain at 3 mg/kg, po measured after 24 hrs; assay type: ADME, organism-based; conditions: in vivo
Rattus norvegicus [19] = assay: Elevation of O-protein in rat brain at 3 mg/kg, po measured after 24 hrs relative to control; assay type: functional
[20] = Ratio of drug uptake in rat brain to plasma at 3 mg/kg, po measured after 24 hrs; assay type: ADME, organism-based; conditions: read-out: BPR
[21] = Clearance in Wistar Han rat at 1 mg/kg, iv; assay type: ADME, organism-based; conditions: in vivo
[22] = Half life in Wistar Han rat at 1 mg/kg, iv; assay type: ADME, organism-based; conditions: in vivo
[23] = Volume of distribution at steady state in Wistar Han rat at 1 mg/kg, iv or 3 mg/kg, po; assay type: ADME, organism-based; conditions: in vivo, read-out: Vdss
Cytochrome P450 3A4 = Cytochrome P450 3A4 (Homo sapiens, UniProt P08684); assay: Inhibition of CYP3A4 (unknown origin); assay type: ADME
[24] = target: Voltage-gated inwardly rectifying potassium channel KCNH2 (Homo sapiens, UniProt Q12809); assay: Displacement of MK-0499 from human ERG
Cytochrome P450 2C9 = Cytochrome P450 2C9 (Homo sapiens, UniProt P11712); assay: Inhibition of CYP2C9 (unknown origin); assay type: ADME
[25] = target: Sodium channel protein type 5 subunit alpha (Homo sapiens, UniProt Q14524); assay: Inhibition of Nav1.5 (unknown origin)
[26] = target: T4, Nuclear receptor subfamily 1 group I member 2 (Homo sapiens, UniProt O75469); assay: Activation of PXR (unknown origin) assessed as CYP3A4 induction
T4 sequence (O75469 whole entry): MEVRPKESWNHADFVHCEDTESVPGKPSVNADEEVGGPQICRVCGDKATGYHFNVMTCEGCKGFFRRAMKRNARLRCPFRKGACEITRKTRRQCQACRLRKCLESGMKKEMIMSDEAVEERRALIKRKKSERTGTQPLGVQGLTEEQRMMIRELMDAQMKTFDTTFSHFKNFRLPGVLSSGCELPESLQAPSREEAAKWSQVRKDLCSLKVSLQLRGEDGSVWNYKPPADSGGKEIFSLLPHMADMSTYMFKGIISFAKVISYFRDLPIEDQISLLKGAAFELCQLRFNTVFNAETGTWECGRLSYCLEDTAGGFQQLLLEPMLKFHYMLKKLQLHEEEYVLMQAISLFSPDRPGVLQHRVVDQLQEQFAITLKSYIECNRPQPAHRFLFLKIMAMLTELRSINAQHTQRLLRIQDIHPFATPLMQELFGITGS

Cytochrome P450 2D6 = Cytochrome P450 2D6 (Homo sapiens, UniProt P10635); assay: Inhibition of CYP2D6 (unknown origin); assay type: ADME
[27] = target: Voltage-dependent L-type calcium channel subunit alpha-1C (Homo sapiens, UniProt Q13936); assay: Inhibition of Cav1.2 (unknown origin)
Chain of Voltage-dependent L-type calcium channel subunit alpha-1C (Q13936 whole entry): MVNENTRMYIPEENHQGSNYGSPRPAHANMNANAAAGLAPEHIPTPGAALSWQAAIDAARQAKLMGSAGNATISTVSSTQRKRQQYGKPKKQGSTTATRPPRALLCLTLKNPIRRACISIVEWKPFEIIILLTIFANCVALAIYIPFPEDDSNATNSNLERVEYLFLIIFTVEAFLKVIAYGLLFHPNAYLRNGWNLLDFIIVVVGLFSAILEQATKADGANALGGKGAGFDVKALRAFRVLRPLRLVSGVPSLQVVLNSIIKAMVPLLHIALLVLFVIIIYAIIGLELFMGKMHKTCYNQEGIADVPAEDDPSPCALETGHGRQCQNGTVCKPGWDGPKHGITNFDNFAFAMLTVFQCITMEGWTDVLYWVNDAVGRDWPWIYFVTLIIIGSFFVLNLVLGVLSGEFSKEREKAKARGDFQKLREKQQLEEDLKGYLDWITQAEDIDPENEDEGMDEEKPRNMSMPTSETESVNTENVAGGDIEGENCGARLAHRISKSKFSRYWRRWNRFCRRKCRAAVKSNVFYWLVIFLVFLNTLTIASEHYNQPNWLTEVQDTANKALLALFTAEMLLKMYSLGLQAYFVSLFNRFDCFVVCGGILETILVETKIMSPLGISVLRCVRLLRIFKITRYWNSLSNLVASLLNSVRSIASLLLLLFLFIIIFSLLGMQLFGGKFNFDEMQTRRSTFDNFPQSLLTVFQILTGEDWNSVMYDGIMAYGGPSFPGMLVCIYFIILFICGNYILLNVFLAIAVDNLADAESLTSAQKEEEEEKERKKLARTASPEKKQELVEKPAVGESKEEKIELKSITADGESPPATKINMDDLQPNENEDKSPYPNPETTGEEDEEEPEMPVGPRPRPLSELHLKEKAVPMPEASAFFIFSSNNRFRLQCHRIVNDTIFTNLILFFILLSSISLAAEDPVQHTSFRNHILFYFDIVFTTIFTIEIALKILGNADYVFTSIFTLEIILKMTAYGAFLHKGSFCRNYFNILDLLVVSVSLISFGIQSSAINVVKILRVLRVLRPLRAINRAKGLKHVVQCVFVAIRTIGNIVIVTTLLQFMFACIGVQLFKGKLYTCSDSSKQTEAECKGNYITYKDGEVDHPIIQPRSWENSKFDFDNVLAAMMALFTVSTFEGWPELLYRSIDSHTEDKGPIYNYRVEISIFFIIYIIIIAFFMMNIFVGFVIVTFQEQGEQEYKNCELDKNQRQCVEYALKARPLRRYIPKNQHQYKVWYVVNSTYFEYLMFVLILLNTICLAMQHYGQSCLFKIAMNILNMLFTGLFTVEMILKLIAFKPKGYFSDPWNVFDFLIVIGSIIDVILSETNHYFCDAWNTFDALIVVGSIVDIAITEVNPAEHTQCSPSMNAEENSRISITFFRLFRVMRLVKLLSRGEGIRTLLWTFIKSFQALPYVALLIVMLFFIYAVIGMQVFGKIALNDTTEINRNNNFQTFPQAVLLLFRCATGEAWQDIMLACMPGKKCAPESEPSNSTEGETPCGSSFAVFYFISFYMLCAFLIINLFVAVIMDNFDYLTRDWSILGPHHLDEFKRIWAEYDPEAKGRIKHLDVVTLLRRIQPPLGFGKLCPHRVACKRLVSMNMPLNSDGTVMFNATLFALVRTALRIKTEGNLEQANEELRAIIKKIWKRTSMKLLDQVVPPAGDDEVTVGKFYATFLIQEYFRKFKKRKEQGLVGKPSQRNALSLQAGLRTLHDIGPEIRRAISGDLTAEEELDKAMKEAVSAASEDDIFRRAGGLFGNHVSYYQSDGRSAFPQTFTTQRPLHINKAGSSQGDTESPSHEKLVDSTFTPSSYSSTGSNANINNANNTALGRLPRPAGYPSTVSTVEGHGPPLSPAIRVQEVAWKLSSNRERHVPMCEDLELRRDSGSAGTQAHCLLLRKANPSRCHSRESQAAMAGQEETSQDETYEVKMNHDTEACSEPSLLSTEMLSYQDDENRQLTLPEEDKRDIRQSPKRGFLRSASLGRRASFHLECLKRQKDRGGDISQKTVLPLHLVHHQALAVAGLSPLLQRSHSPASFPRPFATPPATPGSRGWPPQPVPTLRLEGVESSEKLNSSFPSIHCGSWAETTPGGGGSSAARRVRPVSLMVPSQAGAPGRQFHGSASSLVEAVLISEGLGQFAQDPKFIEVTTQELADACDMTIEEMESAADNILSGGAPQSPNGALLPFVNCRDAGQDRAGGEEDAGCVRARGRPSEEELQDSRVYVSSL

Chain of Cytochrome P450 2C9 (P11712 whole entry): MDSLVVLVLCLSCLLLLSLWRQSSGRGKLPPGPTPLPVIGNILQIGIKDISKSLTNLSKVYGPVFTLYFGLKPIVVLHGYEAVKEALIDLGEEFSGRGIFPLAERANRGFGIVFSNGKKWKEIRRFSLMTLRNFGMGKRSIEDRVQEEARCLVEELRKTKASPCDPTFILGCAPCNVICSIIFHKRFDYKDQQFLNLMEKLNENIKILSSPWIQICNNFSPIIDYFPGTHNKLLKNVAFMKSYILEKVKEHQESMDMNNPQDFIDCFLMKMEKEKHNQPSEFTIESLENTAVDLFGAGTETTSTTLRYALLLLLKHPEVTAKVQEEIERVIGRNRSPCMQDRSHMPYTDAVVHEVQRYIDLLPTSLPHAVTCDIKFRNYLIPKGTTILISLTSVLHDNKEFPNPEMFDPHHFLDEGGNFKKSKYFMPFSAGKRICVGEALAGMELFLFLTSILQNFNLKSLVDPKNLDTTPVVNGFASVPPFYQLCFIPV
Chain of Cytochrome P450 3A4 (P08684 whole entry): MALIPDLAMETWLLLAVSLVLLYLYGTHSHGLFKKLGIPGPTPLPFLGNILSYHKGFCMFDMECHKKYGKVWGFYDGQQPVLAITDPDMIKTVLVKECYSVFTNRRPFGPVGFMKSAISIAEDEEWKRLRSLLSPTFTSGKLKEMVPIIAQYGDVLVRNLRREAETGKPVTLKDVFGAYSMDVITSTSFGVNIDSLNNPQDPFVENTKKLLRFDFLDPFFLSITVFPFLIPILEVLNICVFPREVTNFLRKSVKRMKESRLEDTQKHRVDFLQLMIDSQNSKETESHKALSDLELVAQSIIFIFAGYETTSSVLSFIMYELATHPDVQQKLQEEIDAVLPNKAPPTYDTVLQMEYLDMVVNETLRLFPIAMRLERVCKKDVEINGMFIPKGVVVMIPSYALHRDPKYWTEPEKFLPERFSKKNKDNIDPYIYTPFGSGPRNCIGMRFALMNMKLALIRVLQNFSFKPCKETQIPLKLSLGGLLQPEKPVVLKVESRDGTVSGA
Chain of Voltage-gated inwardly rectifying potassium channel KCNH2 (Q12809 whole entry): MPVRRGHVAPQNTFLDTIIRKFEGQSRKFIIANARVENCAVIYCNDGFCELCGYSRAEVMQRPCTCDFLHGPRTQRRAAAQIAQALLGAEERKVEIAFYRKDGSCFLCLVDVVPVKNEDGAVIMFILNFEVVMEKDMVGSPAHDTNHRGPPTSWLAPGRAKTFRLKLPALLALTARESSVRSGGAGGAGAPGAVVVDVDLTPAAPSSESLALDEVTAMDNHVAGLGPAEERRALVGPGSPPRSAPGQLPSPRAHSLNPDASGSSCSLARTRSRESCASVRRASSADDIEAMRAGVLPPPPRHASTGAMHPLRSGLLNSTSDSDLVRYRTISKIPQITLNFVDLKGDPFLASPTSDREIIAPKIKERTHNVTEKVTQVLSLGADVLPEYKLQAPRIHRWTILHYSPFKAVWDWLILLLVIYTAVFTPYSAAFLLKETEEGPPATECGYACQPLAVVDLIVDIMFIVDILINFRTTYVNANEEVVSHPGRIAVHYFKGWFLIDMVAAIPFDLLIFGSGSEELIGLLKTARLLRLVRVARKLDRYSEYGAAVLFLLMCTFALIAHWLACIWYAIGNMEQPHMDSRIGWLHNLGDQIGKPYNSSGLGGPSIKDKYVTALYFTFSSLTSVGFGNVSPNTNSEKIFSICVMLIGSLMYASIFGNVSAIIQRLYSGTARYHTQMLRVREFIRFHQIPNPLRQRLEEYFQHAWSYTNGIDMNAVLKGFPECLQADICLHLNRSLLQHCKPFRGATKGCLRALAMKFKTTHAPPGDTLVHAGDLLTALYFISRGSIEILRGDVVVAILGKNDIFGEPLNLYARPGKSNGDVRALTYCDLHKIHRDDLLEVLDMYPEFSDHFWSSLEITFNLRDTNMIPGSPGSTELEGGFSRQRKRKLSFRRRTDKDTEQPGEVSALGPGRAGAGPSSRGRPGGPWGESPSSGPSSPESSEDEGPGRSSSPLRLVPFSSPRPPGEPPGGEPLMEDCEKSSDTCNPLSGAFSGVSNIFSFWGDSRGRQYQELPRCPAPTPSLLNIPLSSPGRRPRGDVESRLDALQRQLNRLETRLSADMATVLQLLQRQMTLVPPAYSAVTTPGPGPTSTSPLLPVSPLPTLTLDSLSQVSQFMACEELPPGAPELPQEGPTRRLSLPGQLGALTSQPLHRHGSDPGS
Chain of Cytochrome P450 2D6 (P10635 whole entry): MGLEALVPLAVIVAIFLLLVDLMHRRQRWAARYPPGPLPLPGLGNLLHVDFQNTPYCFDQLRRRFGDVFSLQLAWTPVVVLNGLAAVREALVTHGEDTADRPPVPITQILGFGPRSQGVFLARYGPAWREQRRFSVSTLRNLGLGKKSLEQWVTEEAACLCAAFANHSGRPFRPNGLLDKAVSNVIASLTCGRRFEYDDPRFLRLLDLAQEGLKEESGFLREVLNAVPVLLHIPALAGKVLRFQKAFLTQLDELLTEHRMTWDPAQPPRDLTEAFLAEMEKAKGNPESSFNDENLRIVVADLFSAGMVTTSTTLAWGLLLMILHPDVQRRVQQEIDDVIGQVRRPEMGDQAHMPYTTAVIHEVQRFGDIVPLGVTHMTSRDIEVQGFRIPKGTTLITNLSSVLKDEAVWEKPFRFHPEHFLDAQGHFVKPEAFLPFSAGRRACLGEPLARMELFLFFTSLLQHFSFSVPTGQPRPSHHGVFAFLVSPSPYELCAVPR

SMILES	Vd [1] [L/kg]	bioavailability [3] [%]	fraction unbound at 2.5 µM [4]	Drug uptake [5] [nmol/g]	clearance [6] [mL/min/kg]	fold change (FC) (Rattus norvegicus [7])	Tmax [8] [h]	EC50 (Protein O-GlcNAcase [9]) [nM]	Papp (MDR1) [×10⁻⁶ cm/s]	AUC/dose [10] [µM·kg·h/mg]	AUC [11] [nM·h/g]	fraction unbound at 2.5 µM [12]	Ki (Protein O-GlcNAcase [13]) [nM]	Ki [14] [nM]	Kp at 8 h [15]	half-life [17] [h]	Drug uptake [18] [nmol/g]	fold change (FC) (Rattus norvegicus [2])	fold change (FC) (Rattus norvegicus [16])	fold change (FC) (Rattus norvegicus [19])	further results
CNC1=N[C@@H]2[C@H](F)[C@H](O)[C@@H](C(F)F)O[C@@H]2S1	2.96	90.4	0.93	0.142	11.4	11.69	8	58.2	20	4.27	35.91	0.97	23	> 10000	0.189	4.29	–	2.04	2.51	–	–
CNC1=N[C@@H]2C[C@H](O)[C@@H](C(F)F)O[C@@H]2S1	2.23	74.7	0.88	0.289	30.4	19.68	8	–	24	1.9	53.87	> 0.99	–	> 10000	2.22	1.66	–	2.69	1.8	–	–
CNC1=N[C@@H]2[C@H](F)[C@H](O)[C@@H](CF)O[C@@H]2S1	–	60.5	> 0.99	–	–	–	–	328	26	2.96	–	> 0.99	35	> 10000	–	–	–	–	–	–	clearance [21]: 14.4 mL/min/kg; half-life [22]: 1.18 h; Vd [23]: 0.85 L/kg
CCNC1=N[C@@H]2[C@@H](O)[C@H](O)[C@@H](CF)O[C@@H]2S1	3.8	102	0.98	0.228	37.4	–	–	176	6.1	1.77	–	0.87	20	–	1.49	2.39	0.047	–	1.84	1.74	IC50 (Cytochrome P450 3A4): > 50000 nM; IC50 [24]: > 30000 nM; IC50 (Cytochrome P450 2C9): > 50000 nM; IC50 [25]: > 30000 nM; EC50 [26]: > 30000 nM; Kp at 24 h [20]: ≥ 18.7; IC50 (Cytochrome P450 2D6): > 50000 nM; IC50 [27]: > 30000 nM

The next lines start with results.

Vd [1] [L/kg]	bioavailability [3] [%]	fraction unbound at 2.5 µM [4]	Drug uptake [5] [nmol/g]	clearance [6] [mL/min/kg]	fold change (FC) (Rattus norvegicus [7])	Tmax [8] [h]	EC50 (Protein O-GlcNAcase [9]) [nM]	Papp (MDR1) [×10⁻⁶ cm/s]	AUC/dose [10] [µM·kg·h/mg]	AUC [11] [nM·h/g]	fraction unbound at 2.5 µM [12]	Ki (Protein O-GlcNAcase [13]) [nM]	Ki [14] [nM]	Kp at 8 h [15]	half-life [17] [h]	Drug uptake [18] [nmol/g]	SMILES	fold change (FC) (Rattus norvegicus [2])	fold change (FC) (Rattus norvegicus [16])	fold change (FC) (Rattus norvegicus [19])	further results
1.79	132	0.88	0.068	27.8	–	–	34.4	5.3	3.36	–	0.96	0.55	790	0.6	1.71	0.025	CNC1=N[C@@H]2[C@@H](O)[C@H](O)[C@@H](CF)O[C@@H]2S1	–	2.44	1.65	Kp at 24 h [20]: ≥ 7.9
10.3	49.7	0.95	0.147	70.5	34.18	12	31.2	14	0.43	4.89	> 0.99	2.4	3900	1.56	3.81	0.049	CN(C)C1=N[C@@H]2[C@@H](O)[C@H](O)[C@@H](C(F)F)O[C@@H]2S1	2.83	2.53	2.57	Kp at 24 h [20]: 3.03
